Data: publication PMC7061341, “Detection of the in vitro modulation of Plasmodium falciparum Arf1 by Sec7 and ArfGAP domains using a colorimetric plate-based assay” (Scientific Reports, 2020)
Values belong to the compound of their own block, whether it stands above or below them.

What was measured:
PfArfGAP1 = target: T1, PfArfGAP1 (Plasmodium falciparum, UniProt Q8I4Y5); assay: plate-based GST-GGA3 GAT binding GAP assay; confirmed by tryptophan fluorescence; type: biochemical
T1 construct: gene PF3D7_1244600; GAP domain, amino acids 1–161; with PfArf1 (NΔ17, GTP-loaded)

[1] = target: ^NΔ17PfArf1 (His-tagged P. falciparum Arf1 minus the N-terminal 17 amino acids) (Plasmodium falciparum) (UniProt Q7KQL3)
ARNO = target: T2, ARNO (Homo sapiens, UniProt Q99418); assay: plate-based GST-GGA3 GAT binding nucleotide exchange assay, […] compound; type: biochemical
T2 construct: gene CYTH2; Sec7 domain, amino acids 51–253; with Arf1 (NΔ17HsArf1 or NΔ17PfArf1, GDP-loaded)

IC50 (PfArfGAP1): 4700 nM
Compound: CC1(C(=O)Nc2cccc3cccnc23)CCN1C(=O)CCC1CCCC1 (stereo not drawn) [Chem1099]

half-maximal GAP activity (EC50): deactivation of 1 µM ^NΔ17PfArf1-GTP by three-fold serial dilutions (0.5–0.002 µM) of the GAP domain, read by the GST-GGA3^GAT binding assay [1]: 21 nM
Compound: PfArfGAP1^GAP (putative GAP domain of P. falciparum ArfGAP1) (domain or fragment)

% inhibition at 50 μM (ARNO): 93
Compound: SecinH3
